Source: ChEMBL document CHEMBL4152332, “Discovery and synthesis of novel magnolol derivatives with potent anticancer activity in non-small cell lung cancer” (Eur J Med Chem, 2018)

Tested on: Mus musculus
Experiment: Toxicity in Balb/c mouse xenografted with human NCI-H1975 cells assessed as change in body weight at 10 mg/kg, po qd treated for 18 days and measured every 2 days after compound dosing ( Rvb = 2.89%)
Type: organism-based
Settings: in vivo

C=CCc1ccc(O)c(-c2cc(CC=C)cc(CN3CCC(N)CC3)c2O)c1
Activity: 13.3%
